According to patent publication US8541584B2, “3-(1,2,3-triazol-4-yl) pyrrolo [2,3-b] pyridine derivatives” (Merck Patent GmbH, priority 2009, dated 2013):

These compounds were tested against T1, IKKε (Homo sapiens, UniProt Q14164) (assay: IKKε kinase test (384-well flashplate)). Conditions: 1 nM IKKε, 10 μM ATP, 30° C., 120 min; read-out: IC50 [IKKepsilon].
T1 sequence (Q14164 1-716): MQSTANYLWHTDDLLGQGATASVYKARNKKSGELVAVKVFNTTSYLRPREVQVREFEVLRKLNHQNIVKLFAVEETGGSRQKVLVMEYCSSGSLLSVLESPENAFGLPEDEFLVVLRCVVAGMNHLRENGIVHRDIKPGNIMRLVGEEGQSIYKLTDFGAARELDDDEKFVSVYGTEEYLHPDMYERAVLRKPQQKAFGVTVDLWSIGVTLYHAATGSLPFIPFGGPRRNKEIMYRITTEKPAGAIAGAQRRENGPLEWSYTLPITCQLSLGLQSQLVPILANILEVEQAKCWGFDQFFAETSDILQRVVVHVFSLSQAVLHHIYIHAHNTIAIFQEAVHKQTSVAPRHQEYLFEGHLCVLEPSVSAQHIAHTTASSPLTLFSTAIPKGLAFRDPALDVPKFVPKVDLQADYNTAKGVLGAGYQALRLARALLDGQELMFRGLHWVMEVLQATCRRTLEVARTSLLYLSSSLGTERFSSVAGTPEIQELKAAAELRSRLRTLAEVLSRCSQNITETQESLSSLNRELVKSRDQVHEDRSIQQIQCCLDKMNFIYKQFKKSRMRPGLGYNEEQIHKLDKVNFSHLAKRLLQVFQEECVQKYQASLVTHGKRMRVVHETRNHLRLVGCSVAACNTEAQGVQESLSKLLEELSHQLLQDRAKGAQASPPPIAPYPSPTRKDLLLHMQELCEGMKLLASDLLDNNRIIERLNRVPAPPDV
Type: biochemical
Procedure: IKKε—Kinase Test (IKKepsilon)
The kinase assay is performed as 384-well flashplate assay.
1 nM IKKε, 800 nM biotinylated IκBα(19-42) peptide (biotin-C6-C6-[…]) and 10 μM ATP (with 0.3 μCi of ^33P-ATP/well) are incubated in a total volume of 50 μl (10 mM MOPS, 10 mM magnesium acetate, 0.1 mM EGTA, 1 mM dithiothreitol, 0.02% of Brij35, 0.1% of BSA, 0.1% of BioStab, pH 7.5) with or without test substance at 30° C. for 120 min. The reaction is stopped using 25 μl of 200 mM EDTA solution, filtered off with suction after 30 min at room temperature, and the wells are washed 3 times with 100 μl of 0.9% NaCl solution. The non-specific proportion of the kinase reaction (blank) is determined using 3 μM EMD 1126352 (BX-795). Radioactivity is measured in the Topcount. IC50 values are calculated using RS1.

Compared with `Cn1cc(-c2cnc3[nH]cc(-c4cn(Cc5ccc6ncccc6c5)nn4)c3c2)cn1` [Compound A29, 6-{4-[5-(1-Methyl-1H-pyrazol-4-yl)-1H-pyrrolo[2,3-b]pyridin-3-yl]-1,2,3-triazol-1-ylmethyl}quinoline], `Cc1cccc(Cn2cc(-c3c[nH]c4ncc(-c5cnn(C)c5)cc34)nn2)c1` [Compound A7, 3-[1-(3-Methylbenzyl)-1H-1,2,3-triazol-4-yl]-5-(1-methyl-1H-pyrazol-4-yl)-1H-pyrrolo[2,3-b]pyridine] is lower in IC50: 1000 to 10000 nM for the first, 0.5 to 1000 nM for the second. The second is the more potent here.

`Cn1cc(-c2cnc3[nH]cc(-c4cn(Cc5cccc(F)c5F)nn4)c3c2)cn1` [Compound A25, 3-[1-(2,3-Difluorobenzyl)-1H-1,2,3-triazol-4-yl]-5-(1-methyl-1H-pyrazol-4-yl)-1H-pyrrolo-[2,3-b]pyridine] and `Cn1cc(-c2cnc3[nH]cc(-c4cn(Cc5ccccc5F)nn4)c3c2)cn1` [Compound A17, 3-[1-(2-Fluorobenzyl)-1H-1,2,3-triazol-4-yl]-5-(1-methyl-1H-pyrazol-4-yl)-1H-pyrrolo-[2,3-b]pyridine] fall in the same range of IC50: 0.5 to 1000 nM for the first, 0.5 to 1000 nM for the second.

`Cn1cc(-c2cnc3[nH]cc(-c4cn(Cc5ccncc5)nn4)c3c2)cn1` [Compound A9, 5-(1-Methyl-1H-pyrazol-4-yl)-3-(1-pyridin-4-ylmethyl-1H-1,2,3-triazol-4-yl)-1H-pyrrolo-[2,3-b]pyridine] and `CC(c1ccccc1C(F)(F)F)n1cc(-c2c[nH]c3ncc(-c4cnn(C)c4)cc23)nn1` (stereo not drawn) [Compound A20, 5-(1-Methyl-1H-pyrazol-4-yl)-3-{1-[1-(2-trifluoromethylphenyl)ethyl]-1H-1,2,3-triazol-4-yl}-1H-pyrrolo[2,3-b]pyridine] fall in the same range of IC50: 0.5 to 1000 nM for the first, 0.5 to 1000 nM for the second.
